Experimental data as given in ChEMBL document CHEMBL1122409, “Estrogen receptor binding and estrogenic/antiestrogenic effects of two new metabolites of nitromiphene, 2-[p-[2-nitro-1-(4-methoxyphenyl)-2-phenylvinyl]phenoxy]-N-ethylpyrrolidine” (J Med Chem, 1983).
Each block holds one molecule with its values, some of them ahead of it. Active and inactive are the calls of the source. No cut-off for these calls is given here.

How the values were obtained:
[1] = target: T1, Estrogen receptor (Rattus norvegicus) (UniProt P06211+Q62986); assay: Displacement of [3H]estradiol from rat estrogen receptor; inactive; format: protein assay
[2] = target: T1, Estrogen receptor (Rattus norvegicus); assay: Antagonistic effect on estradiol benzoate induced uterine weight gain in immature rats at 1E-6M; format: functional; parameters: scale not given: the % may be the effect or the level left
[3] = target: T1, Estrogen receptor (Rattus norvegicus); assay: Displacement of [3H]estradiol from rat estrogen receptor; modest estrogenic activity; format: protein assay
[4] = target: T1, Estrogen receptor (Rattus norvegicus); assay: Displacement of [3H]estradiol from rat estrogen receptor; increased estrogenic activity; format: protein assay
[5] = target: T1, Estrogen receptor (Rattus norvegicus); assay: Antagonistic effect against estradiol benzoate induced uterine weight gain in immature rats at 1E-6M; increased estrogenic activity; format: functional; parameters: scale not given: the % may be the effect or the level left

- Activity [1]: inactive
SMILES: COc1ccc(C(C(=O)c2ccccc2)c2ccc(OCCN3CCCC3)cc2)cc1 (stereo not given)

- Activity [2]: 11%
- Activity [3]: Weak activity
SMILES: COc1ccc(/C(=C(/c2ccccc2)[N+](=O)[O-])c2ccc(OCCN3CCCC3)cc2)cc1

- Activity [4]: Active
- Activity [5]: 43%
SMILES: COc1ccc(/C(=C(/c2ccccc2)[N+](=O)[O-])c2ccc(OCCN3CCCC3=O)cc2)cc1
